Reference: ChEMBL document CHEMBL1275354, “Anticonvulsant activity of 2,4(1H)-diarylimidazoles in mice and rats acute seizure models” (Bioorg Med Chem, 2010)
Calls of active or inactive are those of the source.

Columns and labels:
Rattus norvegicus [1] = assay: Anticonvulsant activity in albino Sprague-Dawley rat assessed as protection against maximal electroshock-induced seizures at 30 mg/kg, po after 4 hrs; assay type: functional, organism-based; parameters: dose 30 mg/kg
Rattus norvegicus [2] = assay: Anticonvulsant activity in albino Sprague-Dawley rat assessed as protection against maximal electroshock-induced seizures at 30 mg/kg, po after 0.25 hrs; assay type: functional, organism-based; parameters: dose 30 mg/kg
Mus musculus [3] = assay: Neurotoxicity in albino CF1 mouse assessed as minimal motor impairment at 30 mg/kg, ip after 0.5 hrs by rotarod test; assay type: toxicity, organism-based; parameters: dose 30 mg/kg, route intraperitoneal; settings: in vivo
Mus musculus [4] = assay: Anticonvulsant activity in albino CF1 mouse assessed as protection against subcutaneous metrazole-induced seizures at 100 mg/kg, ip after 4 hrs; assay type: functional, organism-based; parameters: dose 100 mg/kg
Mus musculus [5] = assay: Neurotoxicity in albino CF1 mouse assessed as minimal motor impairment at 100 mg/kg, ip after 0.5 hrs by rotarod test; assay type: toxicity, organism-based; parameters: dose 100 mg/kg, route intraperitoneal; settings: in vivo
Mus musculus [6] = assay: Anticonvulsant activity in albino CF1 mouse assessed as protection against maximal electroshock-induced seizures at 100 mg/kg, ip after 4 hrs; assay type: functional, organism-based; parameters: dose 100 mg/kg
Rattus norvegicus [7] = assay: Neurotoxicity in albino Sprague-Dawley rat assessed as minimal motor impairment at 30 mg/kg, po by rotarod test; assay type: toxicity, organism-based; parameters: dose 30 mg/kg, route oral; settings: in vivo
Mus musculus [8] = assay: Anticonvulsant activity in albino CF1 mouse assessed as protection against subcutaneous metrazole-induced seizures at 30 mg/kg, ip after 0.5 hrs; assay type: functional, organism-based; parameters: dose 30 mg/kg
Mus musculus [9] = assay: Neurotoxicity in albino CF1 mouse assessed as minimal motor impairment at 100 mg/kg, ip after 4 hrs by rotarod test; assay type: toxicity, organism-based; parameters: dose 100 mg/kg, route intraperitoneal; settings: in vivo
Mus musculus [10] = assay: Anticonvulsant activity in albino CF1 mouse assessed as protection against subcutaneous metrazole-induced seizures at 300 mg/kg, ip after 0.5 hrs; assay type: functional, organism-based; parameters: dose 300 mg/kg
Mus musculus [11] = assay: Anticonvulsant activity in albino CF1 mouse assessed as protection against maximal electroshock-induced seizures at 300 mg/kg, ip after 4 hrs; assay type: functional, organism-based; parameters: dose 300 mg/kg
Mus musculus [12] = assay: Anticonvulsant activity in albino CF1 mouse assessed as protection against maximal electroshock-induced seizures at 30 mg/kg, ip after 0.5 hrs; assay type: functional, organism-based; parameters: dose 30 mg/kg
Mus musculus [13] = assay: Neurotoxicity in albino CF1 mouse assessed as minimal motor impairment at 30 mg/kg, ip after 4 hrs by rotarod test; assay type: toxicity, organism-based; parameters: dose 30 mg/kg, route intraperitoneal; settings: in vivo
Mus musculus [14] = assay: Anticonvulsant activity against maximal electroshock-induced seizures in ip dosed albino CF1 mouse assessed as minimum effective dose after 4 hrs; assay type: functional; settings: read-out: MED
Mus musculus [15] = assay: Neurotoxicity in albino CF1 mouse assessed as minimal motor impairment at 30 to 300 mg/kg, ip after 0.5 hrs by rotarod test; settings: in vivo
Mus musculus [16] = assay: Anticonvulsant activity against subcutaneous metrazole-induced seizures in ip dosed albino CF1 mouse assessed as minimum effective dose after 4 hrs; assay type: functional; settings: albino CF1, 4 h, read-out: MED
Rattus norvegicus [17] = assay: Anticonvulsant activity in albino Sprague-Dawley rat assessed as protection against maximal electroshock-induced seizures at 30 mg/kg, po after 0.5 hrs; assay type: functional, organism-based; parameters: dose 30 mg/kg
Mus musculus [18] = assay: Anticonvulsant activity in albino CF1 mouse assessed as protection against maximal electroshock-induced seizures at 300 mg/kg, ip after 0.5 hrs; assay type: functional, organism-based; parameters: dose 300 mg/kg
Mus musculus [19] = assay: Neurotoxicity in ip dosed albino CF1 mouse assessed as minimum dose required to cause toxicity after 0.5 hrs by rotarod test; assay type: organism-based; settings: in vivo
Mus musculus [20] = assay: Neurotoxicity in ip dosed albino CF1 mouse assessed as minimum dose required to cause toxicity after 4 hrs by rotarod test; assay type: organism-based; settings: in vivo
Mus musculus [21] = assay: Anticonvulsant activity against maximal electroshock-induced seizures in ip dosed albino CF1 mouse assessed as minimum effective dose after 0.5 hrs; assay type: functional; settings: read-out: MED
Rattus norvegicus [22] = assay: Anticonvulsant activity in albino Sprague-Dawley rat assessed as protection against maximal electroshock-induced seizures at 30 mg/kg, po after 2 hrs; assay type: functional, organism-based; parameters: dose 30 mg/kg
Mus musculus [23] = assay: Anticonvulsant activity against subcutaneous metrazole-induced seizures in ip dosed albino CF1 mouse assessed as minimum effective dose after 0.5 hrs; assay type: functional; settings: albino CF1, 0.5 h, read-out: MED
Mus musculus [24] = assay: Anticonvulsant activity in albino CF1 mouse assessed as protection against maximal electroshock-induced seizures at 30 mg/kg, ip after 4 hrs; assay type: functional, organism-based; parameters: dose 30 mg/kg
Mus musculus [25] = assay: Anticonvulsant activity in albino CF1 mouse assessed as protection against subcutaneous metrazole-induced seizures at 300 mg/kg, ip after 4 hrs; assay type: functional, organism-based; parameters: dose 300 mg/kg
Mus musculus [26] = assay: Anticonvulsant activity in albino CF1 mouse assessed as protection against subcutaneous metrazole-induced seizures at 30 mg/kg, ip after 4 hrs; assay type: functional, organism-based; parameters: dose 30 mg/kg
Rattus norvegicus [27] = assay: Anticonvulsant activity in albino Sprague-Dawley rat assessed as protection against maximal electroshock-induced seizures at 30 mg/kg, po after 1 hr; assay type: functional, organism-based; parameters: dose 30 mg/kg
Mus musculus [28] = assay: Anticonvulsant activity in albino CF1 mouse assessed as protection against subcutaneous metrazole-induced seizures at 100 mg/kg, ip after 0.5 hrs; assay type: functional, organism-based; parameters: dose 100 mg/kg
Mus musculus [29] = assay: Neurotoxicity in albino CF1 mouse assessed as minimal motor impairment at 30 to 300 mg/kg, po after 4 hrs by rotarod test; assay type: toxicity, organism-based; parameters: dose 30-300 mg/kg, route oral; settings: in vivo
Mus musculus [30] = assay: Neurotoxicity in albino CF1 mouse assessed as minimal motor impairment at 300 mg/kg, ip after 0.5 hrs by rotarod test; assay type: toxicity, organism-based; parameters: dose 300 mg/kg, route intraperitoneal; settings: in vivo
Mus musculus [31] = assay: Neurotoxicity in albino CF1 mouse assessed as minimal motor impairment at 300 mg/kg, ip after 4 hrs by rotarod test; assay type: toxicity, organism-based; parameters: dose 300 mg/kg, route intraperitoneal; settings: in vivo
Mus musculus [32] = assay: Anticonvulsant activity in albino CF1 mouse assessed as protection against maximal electroshock-induced seizures at 230 mg/kg, ip after 0.25 hrs; assay type: functional, organism-based; parameters: dose 230 mg/kg
Mus musculus [33] = organism: Mus musculus; assay: Protective index, ratio of TD50 for albino CF1 mouse by rotarod test to ED50 for albino CF1 mouse by maximal electroshock seizures test; assay type: functional
Mus musculus [34] = assay: Anticonvulsant activity in albino CF1 mouse assessed as protection against subcutaneous metrazole-induced seizures at 125 mg/kg, ip after 0.25 hrs; assay type: functional, organism-based; parameters: dose 125 mg/kg
Mus musculus [35] = assay: Anticonvulsant activity ip dosed albino CF1 mouse assessed as protection against maximal electroshock-induced seizures after 0.25 hrs; assay type: functional
Mus musculus [36] = assay: Anticonvulsant activity in albino CF1 mouse assessed as protection against maximal electroshock-induced seizures at 100 mg/kg, ip after 0.5 hrs; assay type: functional, organism-based; parameters: dose 100 mg/kg
Mus musculus [37] = assay: Neurotoxicity in albino CF1 mouse assessed as minimal motor impairment at 350 mg/kg, ip after 0.25 hrs by rotarod test; assay type: toxicity, organism-based; parameters: dose 350 mg/kg, route intraperitoneal; settings: in vivo
Mus musculus [38] = assay: Neurotoxicity in albino CF1 mouse assessed as minimal motor impairment at 500 mg/kg, ip after 0.25 hrs by rotarod test; assay type: toxicity, organism-based; parameters: dose 500 mg/kg, route intraperitoneal; settings: in vivo
Mus musculus [39] = assay: Anticonvulsant activity ip dosed albino CF1 mouse assessed as protection against subcutaneous metrazole-induced seizures after 0.25 hrs; assay type: functional; settings: albino CF1, 0.25 h
Mus musculus [40] = assay: Neurotoxicity in ip dosed albino CF1 mouse assessed as minimal motor impairment after 0.25 hrs by rotarod test; assay type: toxicity, organism-based; settings: in vivo
[41] = target: Sodium channel protein type 2 subunit alpha (Homo sapiens, UniProt Q99250); assay: Inhibition of human NaV1.2 expressed in HEK cells at -60 mV holding potential by patch clamp recording technique; assay type: cell-based, HEK293
Sequence of Sodium channel protein type 2 subunit alpha (Q99250 whole entry): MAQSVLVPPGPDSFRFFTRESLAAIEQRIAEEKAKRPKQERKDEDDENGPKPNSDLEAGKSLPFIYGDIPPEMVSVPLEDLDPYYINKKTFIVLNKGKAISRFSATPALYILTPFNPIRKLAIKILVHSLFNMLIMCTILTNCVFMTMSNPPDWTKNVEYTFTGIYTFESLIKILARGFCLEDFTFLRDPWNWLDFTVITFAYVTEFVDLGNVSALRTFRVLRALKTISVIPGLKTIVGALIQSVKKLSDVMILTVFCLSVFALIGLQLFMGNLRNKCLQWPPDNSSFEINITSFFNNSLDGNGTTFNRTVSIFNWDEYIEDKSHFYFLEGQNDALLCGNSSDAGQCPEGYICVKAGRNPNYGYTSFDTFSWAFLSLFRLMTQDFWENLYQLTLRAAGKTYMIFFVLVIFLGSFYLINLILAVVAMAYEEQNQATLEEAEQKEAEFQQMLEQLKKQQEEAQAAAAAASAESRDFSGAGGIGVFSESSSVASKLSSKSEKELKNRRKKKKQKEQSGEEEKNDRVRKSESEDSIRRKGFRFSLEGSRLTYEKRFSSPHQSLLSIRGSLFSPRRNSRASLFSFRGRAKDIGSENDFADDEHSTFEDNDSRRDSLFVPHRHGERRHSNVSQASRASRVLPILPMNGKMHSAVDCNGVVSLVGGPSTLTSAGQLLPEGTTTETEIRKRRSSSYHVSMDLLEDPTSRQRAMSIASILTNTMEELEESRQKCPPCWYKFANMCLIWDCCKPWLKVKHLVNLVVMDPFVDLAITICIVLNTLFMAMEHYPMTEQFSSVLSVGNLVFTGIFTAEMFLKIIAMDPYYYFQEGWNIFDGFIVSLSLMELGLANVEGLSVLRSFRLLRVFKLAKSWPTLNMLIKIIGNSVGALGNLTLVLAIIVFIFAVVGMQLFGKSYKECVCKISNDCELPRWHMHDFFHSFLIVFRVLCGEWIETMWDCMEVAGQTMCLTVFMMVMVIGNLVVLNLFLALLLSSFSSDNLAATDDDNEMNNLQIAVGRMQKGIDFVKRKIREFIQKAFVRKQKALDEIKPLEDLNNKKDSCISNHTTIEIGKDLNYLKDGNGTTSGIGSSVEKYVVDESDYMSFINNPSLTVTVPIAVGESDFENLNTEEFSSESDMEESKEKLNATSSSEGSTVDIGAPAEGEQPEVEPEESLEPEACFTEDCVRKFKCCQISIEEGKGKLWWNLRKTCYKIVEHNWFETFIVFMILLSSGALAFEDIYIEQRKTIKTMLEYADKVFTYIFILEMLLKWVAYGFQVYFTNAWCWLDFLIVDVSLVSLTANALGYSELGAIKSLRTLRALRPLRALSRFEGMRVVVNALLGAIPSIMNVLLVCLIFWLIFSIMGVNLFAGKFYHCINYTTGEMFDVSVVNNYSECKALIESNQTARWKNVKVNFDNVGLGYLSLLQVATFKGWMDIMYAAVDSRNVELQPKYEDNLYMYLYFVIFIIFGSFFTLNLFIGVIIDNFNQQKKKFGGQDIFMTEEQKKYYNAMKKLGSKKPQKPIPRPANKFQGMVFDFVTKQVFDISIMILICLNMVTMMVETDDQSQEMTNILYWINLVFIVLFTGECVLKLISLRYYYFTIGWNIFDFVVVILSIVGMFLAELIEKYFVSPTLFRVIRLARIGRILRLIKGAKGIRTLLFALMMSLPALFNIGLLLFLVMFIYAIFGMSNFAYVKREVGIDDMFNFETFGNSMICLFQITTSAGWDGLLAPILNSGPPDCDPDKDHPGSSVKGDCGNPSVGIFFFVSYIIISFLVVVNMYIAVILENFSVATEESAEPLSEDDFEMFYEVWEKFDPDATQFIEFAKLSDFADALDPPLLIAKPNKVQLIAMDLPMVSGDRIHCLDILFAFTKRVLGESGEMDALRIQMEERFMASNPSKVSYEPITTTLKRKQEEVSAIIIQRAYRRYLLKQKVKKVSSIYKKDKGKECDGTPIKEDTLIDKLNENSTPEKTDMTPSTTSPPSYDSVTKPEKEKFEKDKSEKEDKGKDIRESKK

Mus musculus [42] = assay: Anticonvulsant activity in albino CF1 mouse assessed as protection against subcutaneous metrazole-induced seizures at 250 mg/kg, ip after 0.25 hrs; assay type: functional, organism-based; parameters: dose 250 mg/kg

O=[N+]([O-])c1cccc(-c2c[nH]c(-c3ccccc3)n2)c1
100 mg/kg: minimal effective dose (Mus musculus [14]) | minimal effective dose (Mus musculus [21])
inactive: Activity (Rattus norvegicus [1]) | Activity (Rattus norvegicus [2]) | Activity (Mus musculus [4]) | Activity (Mus musculus [6]) | Activity (Mus musculus [8]) | Activity (Mus musculus [10]) | Activity (Mus musculus [12]) | Activity (Rattus norvegicus [17]) | Activity (Rattus norvegicus [22]) | Activity (Mus musculus [24]) | Activity (Mus musculus [25]) | Activity (Mus musculus [26]) | Activity (Rattus norvegicus [27]) | Activity (Mus musculus [28])
> 300 mg/kg: minimal effective dose (Mus musculus [16]) | MED (Mus musculus [19]) | MED (Mus musculus [20]) | minimal effective dose (Mus musculus [23])
active: Activity (Mus musculus [11]) | Activity (Mus musculus [18])
Non-toxic: Activity (Mus musculus [3]) | Activity (Mus musculus [5]) | Activity (Rattus norvegicus [7]) | Activity (Mus musculus [9]) | Activity (Mus musculus [13]) | Activity (Mus musculus [15]) | Activity (Mus musculus [29]) | Activity (Mus musculus [30]) | Activity (Mus musculus [31])

O=[N+]([O-])c1cccc(-c2nc(-c3ccccc3)c[nH]2)c1
> 300 mg/kg: minimal effective dose (Mus musculus [16]) | MED (Mus musculus [19]) | MED (Mus musculus [20]) | minimal effective dose (Mus musculus [23])
Non-toxic: Activity (Mus musculus [3]) | Activity (Mus musculus [5]) | Activity (Rattus norvegicus [7]) | Activity (Mus musculus [9]) | Activity (Mus musculus [13]) | Activity (Mus musculus [15]) | Activity (Mus musculus [29]) | Activity (Mus musculus [30]) | Activity (Mus musculus [31])
100 mg/kg: minimal effective dose (Mus musculus [14]) | minimal effective dose (Mus musculus [21])
inactive: Activity (Rattus norvegicus [1]) | Activity (Rattus norvegicus [2]) | Activity (Mus musculus [4]) | Activity (Mus musculus [6]) | Activity (Mus musculus [8]) | Activity (Mus musculus [10]) | Activity (Mus musculus [12]) | Activity (Rattus norvegicus [17]) | Activity (Rattus norvegicus [22]) | Activity (Mus musculus [24]) | Activity (Mus musculus [25]) | Activity (Mus musculus [26]) | Activity (Rattus norvegicus [27]) | Activity (Mus musculus [28])
active: Activity (Mus musculus [11]) | Activity (Mus musculus [18])

Clc1cccc(-c2c[nH]c(-c3ccccc3)n2)c1
137 mg/kg: ED50 (Mus musculus [35])
17.9 µM: IC50 [41]
> 500 mg/kg: TD50 (Mus musculus [40])
> 30 mg/kg: minimal effective dose (Mus musculus [21])
>3.6: PI (Mus musculus [33])
> 300 mg/kg: minimal effective dose (Mus musculus [16]) | MED (Mus musculus [20]) | minimal effective dose (Mus musculus [23])
> 250 mg/kg: ED50 (Mus musculus [39])
active: Activity (Mus musculus [32]) | Activity (Mus musculus [36]) | Activity (Mus musculus [11]) | Activity (Mus musculus [18])
inactive: Activity (Rattus norvegicus [1]) | Activity (Rattus norvegicus [2]) | Activity (Mus musculus [4]) | Activity (Mus musculus [6]) | Activity (Mus musculus [34]) | Activity (Mus musculus [8]) | Activity (Mus musculus [10]) | Activity (Mus musculus [12]) | Activity (Rattus norvegicus [17]) | Activity (Rattus norvegicus [22]) | Activity (Mus musculus [24]) | Activity (Mus musculus [25]) | Activity (Mus musculus [26]) | Activity (Rattus norvegicus [27]) | Activity (Mus musculus [28]) | Activity (Mus musculus [42])
100 mg/kg: minimal effective dose (Mus musculus [14]) | MED (Mus musculus [19])
Non-toxic: Activity (Mus musculus [3]) | Activity (Mus musculus [5]) | Activity (Rattus norvegicus [7]) | Activity (Mus musculus [9]) | Activity (Mus musculus [37]) | Activity (Mus musculus [13]) | Activity (Mus musculus [15]) | Activity (Mus musculus [38]) | Activity (Mus musculus [29]) | Activity (Mus musculus [31])
